Source: publication PMC6044785 (ACS Omega, 2017)
Like-named read-outs stand apart in the source and are kept apart here. Square brackets hold non-standard residues; d marks the D form. Peptide text beside a SMILES is read from it. Gly(But-3-enyl) = C=CCC[C@H](N)C(=O)O; Aib = CC(C)(N)C(=O)O

Experiments:
[1] = target: T1, HDAC8 (Homo sapiens, UniProt Q9BY41); assay: HDAC8 enzymatic inhibition assay; type: biochemical
T1 sequence (Q9BY41 1-377): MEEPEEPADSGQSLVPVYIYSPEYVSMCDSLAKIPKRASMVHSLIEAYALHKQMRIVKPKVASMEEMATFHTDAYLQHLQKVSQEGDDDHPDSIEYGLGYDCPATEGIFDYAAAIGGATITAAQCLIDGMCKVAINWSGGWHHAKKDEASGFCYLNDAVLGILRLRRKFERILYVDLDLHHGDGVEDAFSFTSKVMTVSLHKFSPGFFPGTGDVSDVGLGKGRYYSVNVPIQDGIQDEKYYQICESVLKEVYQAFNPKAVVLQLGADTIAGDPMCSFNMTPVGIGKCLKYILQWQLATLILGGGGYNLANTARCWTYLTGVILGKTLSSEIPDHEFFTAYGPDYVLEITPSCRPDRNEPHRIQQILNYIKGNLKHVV

[2] = tested on: HeLa; assay: Antiproliferative activity on HeLa cells; type: cell-based, human; details: read-out: GI50 (μM) HeLa, 72 h
[3] = tested on: Jurkat; details: read-out: GI50 (μM) Jurkat; Table 3; ref [22]; cited from earlier work
[4] = tested on: P. falciparum; details: read-out: GI50 (μM) P. falciparum; Table 3; ref [22]; cited from earlier work
[5] = tested on: HeLa nuclear extract; assay: HDAC inhibition assay with HeLa nuclear extract; type: biochemical, human; details: read-out: IC50 (μM) HeLa nuclear extract; Table 1; mean ± SD of three independent experiments; >100 = not active (inhibition < 50% at 100 μM)
[6] = tested on: K562; details: read-out: GI50 (μM) K562; Table 3; ref [22]; cited from earlier work
[7] = target: HDAC3/NCOR2 (Homo sapiens, UniProt O15379); assay: HDAC3/NCOR2 enzymatic inhibition assay; type: biochemical
[8] = target: T2, HDAC6 (Homo sapiens, UniProt Q9UBN7); assay: HDAC6 enzymatic inhibition assay; type: biochemical
T2 sequence (Q9UBN7 1-1215): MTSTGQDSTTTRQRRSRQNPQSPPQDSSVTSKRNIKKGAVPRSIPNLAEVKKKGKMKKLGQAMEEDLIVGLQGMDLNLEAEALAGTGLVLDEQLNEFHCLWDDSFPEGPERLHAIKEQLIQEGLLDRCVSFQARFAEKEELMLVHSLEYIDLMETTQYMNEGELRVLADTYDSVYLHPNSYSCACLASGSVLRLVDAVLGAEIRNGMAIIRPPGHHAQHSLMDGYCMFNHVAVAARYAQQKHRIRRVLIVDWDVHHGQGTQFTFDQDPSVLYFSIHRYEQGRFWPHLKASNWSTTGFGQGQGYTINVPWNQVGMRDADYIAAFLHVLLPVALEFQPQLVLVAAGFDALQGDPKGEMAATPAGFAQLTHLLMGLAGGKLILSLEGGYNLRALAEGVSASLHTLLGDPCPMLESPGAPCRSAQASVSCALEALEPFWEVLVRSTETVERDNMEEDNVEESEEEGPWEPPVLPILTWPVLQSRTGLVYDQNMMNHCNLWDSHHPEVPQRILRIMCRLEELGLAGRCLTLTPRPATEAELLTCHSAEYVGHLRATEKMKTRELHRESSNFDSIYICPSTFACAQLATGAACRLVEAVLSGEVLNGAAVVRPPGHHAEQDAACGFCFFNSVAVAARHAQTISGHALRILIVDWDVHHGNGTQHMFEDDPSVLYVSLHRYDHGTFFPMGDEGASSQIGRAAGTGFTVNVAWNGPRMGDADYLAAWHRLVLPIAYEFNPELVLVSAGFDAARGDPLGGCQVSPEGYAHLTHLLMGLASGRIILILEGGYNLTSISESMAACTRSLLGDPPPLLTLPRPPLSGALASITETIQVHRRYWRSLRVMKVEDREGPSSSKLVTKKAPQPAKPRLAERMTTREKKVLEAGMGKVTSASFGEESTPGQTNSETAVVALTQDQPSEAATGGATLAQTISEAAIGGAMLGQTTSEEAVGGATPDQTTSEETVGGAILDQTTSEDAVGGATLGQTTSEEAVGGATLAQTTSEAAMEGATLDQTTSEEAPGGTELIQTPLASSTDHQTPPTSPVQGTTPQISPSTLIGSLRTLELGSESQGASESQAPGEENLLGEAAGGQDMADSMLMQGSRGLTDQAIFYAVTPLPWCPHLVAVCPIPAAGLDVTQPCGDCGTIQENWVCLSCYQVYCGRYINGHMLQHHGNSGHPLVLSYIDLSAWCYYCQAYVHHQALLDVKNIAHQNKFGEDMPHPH

[9] = target: HDAC4 (Homo sapiens, UniProt P56524); assay: HDAC4 enzymatic inhibition assay; type: biochemical
[10] = tested on: HEK293; assay: Antiproliferative activity on HEK293 cells; type: cell-based, human; details: read-out: GI50 (μM) HEK293
[11] = target: HDAC1 (Homo sapiens, UniProt Q13547); assay: HDAC1 enzymatic inhibition assay; type: biochemical
[12] = tested on: K562; assay: Antiproliferative activity on K562 cells; type: cell-based; details: Homo sapiens, K562, read-out: GI50 (μM) K562
[13] = tested on: P. falciparum; assay: P. falciparum [3H]-hypoxanthine incorporation assay; type: cell-based, Plasmodium falciparum 3D7 strain; details: Plasmodium falciparum, 3D7, read-out: GI50 (μM) P. falciparum
[14] = tested on: Jurkat; assay: Antiproliferative activity on Jurkat cells; type: cell-based; details: Homo sapiens, read-out: GI50 (μM) Jurkat
[15] = tested on: normal B lymphocytes; assay: Antiproliferative activity on normal B lymphocytes; type: cell-based; details: Homo sapiens, Lymphocyte, 72 h, read-out: GI50 normal B lymphocytes
[16] = tested on: T. gondii RH strain; details: read-out: IC50 T. gondii RH strain; ref [22]; cited from earlier work

Sequence of HDAC4 (P56524 whole entry): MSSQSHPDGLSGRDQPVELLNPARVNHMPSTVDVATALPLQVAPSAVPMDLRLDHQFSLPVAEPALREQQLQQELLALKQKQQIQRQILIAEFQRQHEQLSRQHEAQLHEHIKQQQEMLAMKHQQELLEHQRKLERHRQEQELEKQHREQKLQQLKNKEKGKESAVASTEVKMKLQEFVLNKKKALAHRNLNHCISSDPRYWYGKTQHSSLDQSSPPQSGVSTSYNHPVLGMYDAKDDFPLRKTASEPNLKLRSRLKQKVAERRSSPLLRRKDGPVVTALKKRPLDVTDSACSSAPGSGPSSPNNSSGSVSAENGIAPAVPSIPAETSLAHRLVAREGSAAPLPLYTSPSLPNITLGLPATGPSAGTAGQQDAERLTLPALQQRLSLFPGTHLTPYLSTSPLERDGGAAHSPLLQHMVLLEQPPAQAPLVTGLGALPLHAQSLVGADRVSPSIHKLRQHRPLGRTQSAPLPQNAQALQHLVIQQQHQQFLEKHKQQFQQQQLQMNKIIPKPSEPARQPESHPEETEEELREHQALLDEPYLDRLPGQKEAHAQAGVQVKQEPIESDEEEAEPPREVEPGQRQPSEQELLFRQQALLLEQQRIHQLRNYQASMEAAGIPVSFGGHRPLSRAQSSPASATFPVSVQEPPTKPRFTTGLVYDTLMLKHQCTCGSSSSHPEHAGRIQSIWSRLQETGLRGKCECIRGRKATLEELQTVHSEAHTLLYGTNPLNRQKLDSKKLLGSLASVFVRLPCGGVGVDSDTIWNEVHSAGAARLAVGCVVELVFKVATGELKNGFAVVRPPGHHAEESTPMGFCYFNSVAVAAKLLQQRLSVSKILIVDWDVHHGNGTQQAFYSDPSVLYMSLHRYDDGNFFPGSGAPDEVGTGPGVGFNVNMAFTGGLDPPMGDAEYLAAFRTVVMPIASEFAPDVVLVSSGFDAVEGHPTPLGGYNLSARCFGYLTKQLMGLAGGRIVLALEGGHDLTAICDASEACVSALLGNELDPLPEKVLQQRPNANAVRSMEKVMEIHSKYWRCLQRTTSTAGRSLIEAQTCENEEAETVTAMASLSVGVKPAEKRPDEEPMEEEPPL
Sequence of HDAC1 (Q13547 whole entry): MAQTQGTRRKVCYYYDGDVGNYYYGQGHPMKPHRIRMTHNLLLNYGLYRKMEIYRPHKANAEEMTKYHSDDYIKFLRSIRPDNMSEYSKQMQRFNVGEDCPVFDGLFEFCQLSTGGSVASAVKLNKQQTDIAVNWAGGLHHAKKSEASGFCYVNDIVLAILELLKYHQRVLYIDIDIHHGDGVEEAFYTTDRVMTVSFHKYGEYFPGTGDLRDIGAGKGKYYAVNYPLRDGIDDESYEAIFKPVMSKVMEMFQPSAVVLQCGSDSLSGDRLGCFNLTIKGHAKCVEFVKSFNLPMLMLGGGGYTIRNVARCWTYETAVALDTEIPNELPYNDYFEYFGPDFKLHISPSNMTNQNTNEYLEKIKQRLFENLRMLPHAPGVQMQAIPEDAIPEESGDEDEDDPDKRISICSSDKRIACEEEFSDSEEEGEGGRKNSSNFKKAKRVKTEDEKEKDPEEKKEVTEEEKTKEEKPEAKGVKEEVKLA
Sequence of HDAC3/NCOR2 (O15379 whole entry): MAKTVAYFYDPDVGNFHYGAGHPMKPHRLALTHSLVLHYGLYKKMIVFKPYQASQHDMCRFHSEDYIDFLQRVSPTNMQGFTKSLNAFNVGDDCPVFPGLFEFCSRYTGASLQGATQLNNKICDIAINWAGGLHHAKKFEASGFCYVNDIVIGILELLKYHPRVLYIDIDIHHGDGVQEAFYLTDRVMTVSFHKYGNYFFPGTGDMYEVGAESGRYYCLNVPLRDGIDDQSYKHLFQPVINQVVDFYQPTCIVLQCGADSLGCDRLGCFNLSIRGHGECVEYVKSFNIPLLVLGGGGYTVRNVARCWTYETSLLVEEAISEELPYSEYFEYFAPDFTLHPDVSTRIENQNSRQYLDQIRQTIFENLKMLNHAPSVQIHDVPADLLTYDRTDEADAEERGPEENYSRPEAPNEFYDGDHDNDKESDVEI
Sequence of HDAC3/NCOR2 (Q9Y618 395-489 partner limits assumed): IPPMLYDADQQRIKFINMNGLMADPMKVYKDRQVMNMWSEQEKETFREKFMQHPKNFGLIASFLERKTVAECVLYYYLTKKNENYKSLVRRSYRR

SMILES | IC50 [1] | IC50 [5] | IC50 [7] | IC50 [8] | IC50 [9] | IC50 [11] | GI50 [12] | GI50 [13] | GI50 ([2]; Homo sapiens) | GI50 [14] | GI50 ([10]; Homo sapiens, HEK293, 72 h) | other results
CC(=O)O[C@H](C)C(=O)CCCCC[C@@H]1NC(=O)[C@H]2CCCN2C(=O)[C@H](Cc2ccccc2)NC(=O)C(C)(C)NC1=O [Compound 13] | 1.87 ± 0.42 µM | 0.11 ± 0.0008 µM | 0.35 ± 0.003 µM | > 300 µM | > 100 µM | 0.39 ± 0.02 µM |  |  |  |  |  | GI50 ([2]; Table 3, XTT): 0.119 ± 0.008 µM; GI50 [3]: 0.127 ± 0.011 µM; GI50 [4]: 0.0221 ± 0.001 µM; GI50 [6]: 0.061 ± 0.002 µM; GI50 ([10]; Table 3, 72 h, XTT): 0.006 ± 0.001 µM
C=CCC[C@@H]1NC(=O)[C@H]2CCCN2C(=O)[C@H](Cc2ccccc2)NC(=O)C(C)(C)NC1=O [Compound 14] (cyclo([Aib]F[dP][Gly(But-3-enyl)])) |  |  |  | > 300 µM |  |  |  |  |  |  |  | 
C[C@@H](O)C(=O)CCCCCCCC(=O)Nc1ccccc1 [Compound 11c, (R)-10-Hydroxy-9-oxo-N-phenylundecanamide] |  | 27.3 ± 5.9 µM |  | > 300 µM |  |  |  |  |  |  |  | 
C[C@H](O)C(=O)CCCCCCC(=O)Nc1cccc(-c2cn(-c3ccccc3)nn2)c1 [Compound 11e, (S)-9-Hydroxy-8-oxo-N-(3-(1-phenyl-1H-1,2,3-triazol-4-yl)phenyl)decanamide] | > 100 µM | 0.88 ± 0.05 µM | 1.97 ± 0.03 µM | > 300 µM | > 100 µM | 5.04 ± 0.07 µM | 7.12 ± 0.9 µM | 4.85 ± 1.3 µM | 115 ± 25.3 µM | 2.84 ± 0.7 µM | 15.9 ± 1.13 µM | GI50 [15]: > 50 µM
C[C@@H](O)C(=O)CCCCCCC(=O)Nc1ccccc1 [Compound 11b, (R)-9-Hydroxy-8-oxo-N-phenyldecanamide] | > 100 µM | 8.9 ± 0.5 µM | 50.2 ± 4.7 µM | > 300 µM | > 100 µM | 7.9 ± 0.8 µM | 62.3 ± 5.8 µM | 37.9 ± 3.8 µM | > 50 µM | 92 ± 1 µM | 35.6 ± 1.6 µM | 
CCC(=O)CCCCCCC(=O)Nc1ccccc1 [Compound 11g, 8-Oxo-N-phenyldecanamide] |  | > 100 µM |  | > 300 µM |  |  |  |  |  |  |  | 
C[C@H](O)C(=O)CCCCCCC(=O)Nc1ccccc1 [Compound 11f, (S)-9-Hydroxy-8-oxo-N-phenyldecanamide] |  | 77.1 ± 6.4 µM |  | > 300 µM |  |  |  |  |  |  |  | 
CC(=O)O[C@H](C)C(=O)CCCCCCC(=O)Nc1ccccc1 [Compound 12b, (R)-3,10-Dioxo-10-(phenylamino)decan-2-yl Acetate] |  | 63.8 ± 5.3 µM |  | > 300 µM |  |  | ≥ 100 µM | 40.1 ± 4.3 µM | > 50 µM | ≥ 100 µM | 36.3 ± 1.7 µM | 
C[C@@H](O)C(=O)CCCCCC(=O)Nc1ccccc1 [Compound 11a, (R)-8-Hydroxy-7-oxo-N-phenylnonanamide] |  | > 100 µM |  | 101 ± 2.9 µM |  |  |  |  |  |  |  | 
C[C@@H](O)C(=O)CCCCC[C@@H]1NC(=O)[C@H]2CCCN2C(=O)[C@H](Cc2ccccc2)NC(=O)C(C)(C)NC1=O [Compound 3] | 7.02 ± 1.53 µM | 0.0081 ± 0.0019 µM | 0.33 ± 0.01 µM | > 300 µM | > 100 µM | 0.96 ± 0.6 µM |  |  | 0.17 ± 0.01 µM |  | 0.04 ± 0.02 µM | IC50 [16]: 0.0286 µM; GI50 [3]: 0.048 ± 0.001 µM; GI50 [4]: 0.0174 ± 0.002 µM; GI50 [6]: 0.018 ± 0.002 µM
